Data: patent publication US12036226B2, “Methods of treating subjects having diabetes with chronic kidney disease” (Poxel SA, priority 2018, dated 2024)
Like-named read-outs stand apart in the source and are kept apart here.

Tests used:
[1] = Daily steady-state exposure (AUC24,ss) in a Phase 2b clinical study; type: in vivo; conditions: human, plasma, oral, 1500 mg, 1500 mg BID treatment arm
Method: In addition, predicted daily steady-state exposures (AUC24,ss) for doses of 500 mg BID, 1500 mg QD, and 1000 mg BID in T2DM subjects with CKD stage 3B or 4 in a Phase 1b study were estimated using parameters from the population PK model; the mean AUC24,ss values and standard deviations are shown in FIG. 10. For reference, the mean AUC24,ss and standard deviation from a Phase 2b clinical study is also included in FIG. 10; the mean AUC24,ss in the 1500 mg BID treatment arm in that study was 36.5 μg·hr/mL (the AUC24,ss range was 10.1 to 169.3 μg·hr/mL). At each of the three dose levels, significant overlap in exposure between T2DM subjects with CKD3B and T2DM subjects with CKD4 was predicted as evidenced by the overlap of standard deviation bars between CKD3B and CKD4 subjects at each dose level.

subjects with T2DMs = experiment: Earlier studies in subjects with T2DM for up to 24 weeks (monotherapy, add on to metformin and sitagliptin); type: in vivo, human
[2] = test system: acute renal failure (ARF) rat model; conditions: for plasma glucose: normal rats
Method: The creatinine level, correlated with the degree of the renal function failure, was tested for each rat 7 days after the first injection of gentamicin. […] The creatinine level was determined on the Monarch Chemistry Systems using the IL Test creatinine in rat plasma samples. This monochromatic analysis is based on the formation of a red colored complex between creatinine and picric acid under alkaline conditions.

C[C@H]1N=C(N(C)C)N=C(N)N1 [imeglimin, (6R)—N^2, N^2,6-trimethyl-3,6-dihydro-1,3,5-triazine-2,4-diamine]
AUC ([1]; read-out: AUC24,ss range): 10100 to 169000 ng·h/mL
AUC ([1]; read-out: mean AUC24,ss): 36500 ng·h/mL
tolerability / safety profile (subjects with T2DMs): well-tolerated with a safety profile comparable to that of placebo
plasma glucose ([2]; 180 minutes, imeglimin and metformin 100 mg/h/kg, phenformin 50 mg/h/kg i.v.): 5.4 ± 0.4 mmol/L
plasma glucose ([2]; i.v. perfusion 100 mg/h/kg, 60 minutes (basal 7.6±0.4)): 6.5 ± 0.4 mmol/L
effect on plasma [HCO3−] ([2]; rat, in vivo): significantly decreased plasma [HCO3^−]vs. basal period but not vs. control group
effect on plasma lactate ([2]; rat, in vivo): did not significantly increase plasma lactate
effect on plasma lactate level ([2]; rat, in vivo): did not change plasma lactate level
plasma H+ concentration / metabolic acidosis signs ([2]; rat, in vivo): Metabolic acidosis signs with imeglimin treatment were not observed
plasma accumulation ([2]; rat, in vivo): plasma accumulation of metformin and imeglimin was observed
severe hypoglycemia ([2]; rat, in vivo): severe hypoglycemia was not observed
decrease in plasma glucose ([2]; rats with mild or high ARF): significant and time-dependent
